Measured values published in patent publication US8642611B2, “Alkynylpyrimidines and salts thereof, pharmaceutical compositions comprising same, methods of preparing same and uses of same” (Bayer Intellectual Property GmbH, priority 2007, dated 2014).

How the values were obtained:
Tie2 [1] = target: T1, Tie2 (Homo sapiens, UniProt Q02763); test: Tie-2-Kinase HTRF-Assay without kinase preactivation; format: biochemical; set-up: fusion protein of GST and the intracellular domains of Tie-2; GST; made in house; host or cells: insect cells (Hi-5); conditions: GST-Tie-2 intracellular domains, 10 μM ATP, read-out: Tie2 activity (assay 2)
Source text: Tie2-inhibitory activity of compounds of the present invention was quantified employing two Tie2 HTRF assay as described in the following paragraphs.
A recombinant fusion protein of GST and the intracellular domains of Tie-2, expressed in insect cells (Hi-5) and purified by Glutathion-Sepharose affinity chromatography was used as kinase. Alternatively, commercially available GST-Tie2-fusion protein (Upstate Biotechnology, Dundee, Scotland) can be used As substrate for the kinase reaction the biotinylated peptide biotin-Ahx-EPKDDAYPLYSDFG (C-terminus in amid form) was used which can be purchased e.g. from the company Biosynthan GmbH (Berlin-Buch, Germany). Detection of phosphorylated product is achieved specifically by a trimeric detection complex consisting of the phosphorylated substrate, streptavidin-XLent (SA-XLent) which binds to biotin, and Europium Cryptate-labeled anti-phosphotyrosine antibody PT66 which binds to phosphorylated tyrosine.
Tie-2 (3.5 ng/measurement point) was incubated for 60 min at 22° C. in the presence of 10 μM adenosine-tri-phosphate (ATP) and 1 μM substrate peptide (biotin-Ahx-EPKDDAYPLYSDFG-NH2) with different concentrations of test compounds (0 μM and concentrations in the range 0.001-20 μM) in 5 μl assay buffer [50 mM Hepes/NaOH pH 7, 10 mM MgCl2, 0.5 mM MnCl2, 1.0 mM dithiothreitol, 0.01% NP40, protease inhibitor mixture (“Complete w/o EDTA” from Roche, 1 tablet per 2.5 ml), 1% (v/v) dimethylsulfoxide]. The reaction was stopped by the addition of 5 μl of an aqueous buffer (25 mM Hepes/NaOH pH 7.5, 0.28% (w/v) bovine serum albumin) containing EDTA (90 mM) and the HTRF (Homogeneous Time Resolved Fluorescence) detection reagents streptavidine-XLent (0.2 μM, from Cis Biointernational, Marcoule, France) and PT66-Eu-Chelate (0.3 ng/μl; a europium-chelate labelled anti-phospho-tyrosine antibody from Perkin Elmer).
The resulting mixture was incubated 1 h at 22° C. to allow the binding of the biotinylated phosphorylated peptide to the streptavidine-XLent and the PT66-Eu-Chelate. Subsequently the amount of phosphorylated substrate peptide was evaluated by measurement of the resonance energy transfer from the PT66-Eu-Chelate to the streptavidine-XLent. Therefore, the fluorescence emissions at 620 nm and 665 nm after excitation at 350 nm was measured in a HTRF reader, e.g. a Rubystar (BMG Labtechnologies, Offenburg, Germany) or a Viewlux (Perkin-Elmer). The ratio of the emissions at 665 nm and at […] was taken as the measure for the amount of phosphorylated substrate peptide. The data were normalised (enzyme reaction without inhibitor=0% inhibition, all other assay components but no enzyme=100% inhibition) and IC50 values were calculated by a 4 parameter fit using an inhouse software.
Target sequence in this assay (Q02763 770-1124 limits assumed): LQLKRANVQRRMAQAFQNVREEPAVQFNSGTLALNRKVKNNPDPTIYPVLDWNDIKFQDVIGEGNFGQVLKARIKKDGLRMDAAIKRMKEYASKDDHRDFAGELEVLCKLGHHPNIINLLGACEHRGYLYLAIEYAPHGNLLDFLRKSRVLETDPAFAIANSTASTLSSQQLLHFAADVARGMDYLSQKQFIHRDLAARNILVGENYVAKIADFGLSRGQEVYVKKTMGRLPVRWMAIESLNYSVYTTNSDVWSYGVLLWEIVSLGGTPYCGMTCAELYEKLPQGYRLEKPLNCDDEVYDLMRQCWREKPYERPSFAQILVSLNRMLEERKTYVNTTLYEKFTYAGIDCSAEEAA

Tie2 [2] = target: T1, Tie2; test: Tie2 ELISA assay (cellular Tie2 autophosphorylation, angiopoietin-2 stimulated); format: cell-based; set-up: expressed in transfected cells; host or cells: CHO (DHFR-deficient), stably transfected with Tie2; conditions: CHO cells stably transfected with Tie2, stimulated by angiopoietin-2; Tie2 autophosphorylation by sandwich-ELISA; read-out: Tie2 activity (assay 1)
Description: Assay 1: Tie2 ELISA Assay
Cellular activity of compounds of the present invention as inhibitors of Tie2 kinase activity was measured employing a Tie2 ELISA assay as described in the following paragraphs. Herein CHO cell-cultures, which are stably transfected by known techniques with Tie2 using DHFR deficiency as selection marker, are stimulated by angiopoietin-2. The specific autophosphorylation of Tie2 receptors is quantified with a sandwich-ELISA using anti-Tie2 antibodies for catch and anti-phosphotyrosine antibodies coupled to HRP for detection.
• 96well tissue culture plate, sterile, Greiner • 96well FluoroNunc plate MaxiSorp Surface C, Nunc • 96well plate polypropylene for compound dilution in DMSO • CHO Tie2/DHFR (transfected cells) • PBS−; PBS++, DMSO • MEM alpha Medium with Glutamax-I without Ribonucleosides and • Deoxyribonucleosides (Gibco #32561-029) • with 10% FCS after dialysis! and 1% PenStrep • Lysis buffer: 1 Tablet “Complete” protease inhibitor • 1 cap Vanadate (1 mL>40 mg/mL; working solution 2 mM) • ad 50 mL with Duschl-Puffer • pH 7.6 • Anti-Tie2-antibody 1: 425 in Coating Buffer pH 9.6 • Stock solution: 1.275 mg/mL>working.: 3 μg/mL • PBST: 2 bottles PBS(10×)+10 ml Tween, fill up with VE-water • RotiBlock 1: 10 in VE-water • Anti-Phosphotyrosine HRP-Conjugated 1: 10000 in 3% TopBlock • 3% TopBlock in PBST • BM Chemiluminescence ELISA Substrate (POD) • solution B 1: 100 solution A • SF9 cell culture medium • Ang2-Fc in SF9 cell culture medium Cell Experiment: • Dispense 5×10^4 cells/well/98 μL in 96well tissue culture plate • Incubate at 37° C./5% CO2 • After 24 h add compounds according to desired concentrations • Add also to control and stimulated values without compounds 2 μL DMSO • And mix for a few min at room temperature • Add 100 μL Ang2-Fc to all wells except control, which receives insect medium • Incubate 20 min at 37° C. • Wash 3× with PBS++ • Add 100 μl Lysis buffer/well and shake a couple of min at room temperature • Store lysates at […] before utilizing for the ELISA Performance of Sandwich-ELISA • Coat 96well FluoroNunc Plate MaxiSorp Surface C with anti-Tie2 mAb 1: 425 in Coating buffer pH 9.6; 100 μL/well overnight at 4° C. • Wash 2× with PBST • Block plates with 250 μL/well RotiBlock 1: 10 in VE-water • Incubate for 2 h at room temperature or overnight at 4° C. shaking • Wash 2× in PBST • Add thawed lysates to wells and incubate overnight shaking at 4° C. • Wash 2× with PBST • Add 100 μL/well anti-Phosphotyrosine HRP-Conjugated 1:10000 in 3% TopBlock (3% TopBlock in PBST) and incubate overnight under shaking • Wash 6× with PBST • Add 100 μL/well BM Chemiluminescence ELISA Substrate (POD) • solutions 1 und 2 (1:100) • Determine luminescence with the LumiCount. Assay 2: Tie-2-Kinase HTRF-Assay without kinase preactivation
Target sequence in this assay (Q02763 23-1124): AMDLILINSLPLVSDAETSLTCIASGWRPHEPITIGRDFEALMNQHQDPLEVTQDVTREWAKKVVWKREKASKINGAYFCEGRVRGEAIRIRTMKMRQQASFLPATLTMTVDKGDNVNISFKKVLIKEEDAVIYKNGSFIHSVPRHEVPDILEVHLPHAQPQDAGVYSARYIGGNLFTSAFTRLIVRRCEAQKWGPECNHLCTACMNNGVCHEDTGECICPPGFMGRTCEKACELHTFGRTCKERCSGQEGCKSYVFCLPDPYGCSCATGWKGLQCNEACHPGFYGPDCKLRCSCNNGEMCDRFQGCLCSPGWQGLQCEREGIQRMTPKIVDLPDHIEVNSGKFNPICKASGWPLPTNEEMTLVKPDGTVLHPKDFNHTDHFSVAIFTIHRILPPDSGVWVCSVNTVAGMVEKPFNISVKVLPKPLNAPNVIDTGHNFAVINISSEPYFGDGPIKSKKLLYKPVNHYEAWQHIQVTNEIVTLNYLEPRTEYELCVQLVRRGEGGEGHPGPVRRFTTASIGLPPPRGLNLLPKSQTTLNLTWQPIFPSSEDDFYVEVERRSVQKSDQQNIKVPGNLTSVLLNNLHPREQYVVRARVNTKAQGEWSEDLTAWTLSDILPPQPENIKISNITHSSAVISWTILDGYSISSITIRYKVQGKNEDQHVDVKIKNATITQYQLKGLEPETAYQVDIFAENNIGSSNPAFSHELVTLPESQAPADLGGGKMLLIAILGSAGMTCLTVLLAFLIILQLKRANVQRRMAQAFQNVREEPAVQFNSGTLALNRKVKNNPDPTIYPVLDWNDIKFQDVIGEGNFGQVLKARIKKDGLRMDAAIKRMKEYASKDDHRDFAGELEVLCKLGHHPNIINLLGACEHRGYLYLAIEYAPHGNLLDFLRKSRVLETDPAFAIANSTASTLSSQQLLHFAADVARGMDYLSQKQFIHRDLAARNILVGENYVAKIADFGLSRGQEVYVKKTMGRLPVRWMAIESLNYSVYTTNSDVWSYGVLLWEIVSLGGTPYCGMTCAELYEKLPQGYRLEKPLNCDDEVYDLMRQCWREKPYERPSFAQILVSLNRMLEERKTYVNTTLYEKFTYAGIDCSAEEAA

| Compound | IC50 (Tie2 [1]) [nM] | IC50 (Tie2 [2]) [nM] |
| --- | --- | --- |
| CCNc1nc(Nc2ccc(S(C)(=N)=O)cc2)ncc1C#Cc1ccc(OC)cc1 (racemic) [Example 1.26, (RS)-S-(4-[4-ethylamino-5-(4-methoxy-phenyl-ethynyl)-pyrimidin-2-ylamino]-phenyl)-S-methylsulfoximide] | < 500 | < 500 |
| C[C@H](CO)Nc1nc(Nc2ccc(S(C)(=N)=O)cc2)ncc1C#Cc1ccccc1 (mixture of isomers) [Example 1.2, (RS)-S-(4-[4-((R)-2-Hydroxy-1-methyl-ethylamino)-5-(phenylethynyl)-pyrimidin-2-ylamino]-phenyl)-S-methylsulfoximide] | < 500 | < 500 |
| Cc1ccc(C#Cc2cnc(Nc3ccc(S(C)(=N)=O)cc3)nc2N[C@H](C)CO)cc1 (mixture of isomers) [Example 1.5] | < 500 | < 500 |
| Cc1cc(C#Cc2cnc(Nc3cccc(S(C)(=N)=O)c3)nc2N[C@H](C)CO)ccc1F (mixture of isomers) [Example 1.20, (RS)-S-(3-[5-(4-Fluoro-3-methyl-phenyl-ethynyl)-4-((R)-2-hydroxy-1-methyl-ethylamino)-pyrimidin-2-ylamino]-phenyl)-S-methylsulfoximide] | < 500 | < 500 |
| C[C@H](CO)Nc1nc(Nc2cccc(S(C)(=N)=O)c2)ncc1C#Cc1cccc(O)c1 (mixture of isomers) [Example 1.18, (RS)-S-(3-[4-((R)-2-Hydroxy-1-methyl-ethylamino)-5-(3-hydroxy-phenylethynyl)-pyrimidin-2-ylamino]-phenyl)-S-methylsulfoximide] | < 500 | < 500 |
| Cc1cc(C#Cc2cnc(Nc3ccc(S(C)(=N)=O)cc3)nc2N[C@H](C)CO)ccc1F (mixture of isomers) [Example 1.13, (RS)-S-(4-[5-(4-Fluoro-3-methyl-phenyl-ethynyl)-4-((R)-2-hydroxy-1-methyl-ethylamino)-pyrimidin-2-ylamino]-phenyl)-S-methylsulfoximide] | < 500 | < 500 |
| COc1ccc(C#Cc2cnc(Nc3cccc(S(C)(=N)=O)c3)nc2N[C@H](C)CO)cc1 (mixture of isomers) [Example 1.17, (RS)-S-(3-[4-((R)-2-Hydroxy-1-methyl-ethylamino)-5-(4-methoxy-phenylethynyl)-pyrimidin-2-ylamino]-phenyl)-S-methylsulfoximide] | < 500 | < 500 |
| CC(C)NC(=O)N=S(C)(=O)c1cccc(Nc2ncc(C#Cc3cccc(O)c3)c(N[C@H](C)CO)n2)c1 (mixture of isomers) [Example 1.15, (RS)-S-(3-[4-((R)-2-Hydroxy-1-methyl-ethylamino)-5-(3-hydroxy-phenylethynyl)-pyrimidin-2-ylamino]-phenyl)-N-(isopropylcarbamoyl)-S-methylsulfoximide] | < 500 | < 500 |
| CCc1ccc(C#Cc2cnc(Nc3ccc(S(C)(=N)=O)cc3)nc2N[C@H](C)CO)cc1 (mixture of isomers) [Example 1.8, (RS)-S-(4-[5-(4-Ethyl-phenylethynyl)-4-((R)-2-hydroxy-1-methyl-ethylamino)-pyrimidin-2-ylamino]-phenyl)-S-methylsulfoximide] | < 500 | < 500 |
| CCNc1nc(Nc2ccc(S(C)(=N)=O)cc2)ncc1C#Cc1ccc(F)c(C)c1 (racemic) [Example 1.24, (RS)-S-(4-[4-ethylamino-5-(4-fluoro-3-methyl-phenyl-ethynyl)-pyrimidin-2-ylamino]-phenyl)-S-methylsulfoximide] | < 500 | < 500 |
| C[C@H](CO)Nc1nc(Nc2ccc(S(C)(=N)=O)cc2)ncc1C#Cc1ccc(F)cc1 (mixture of isomers) [Example 1.9, (RS)-S-(4-[5-(4-Fluoro-phenyl-ethynyl)-4-((R)-2-hydroxy-1-methyl-ethylamino)-pyrimidin-2-ylamino]-phenyl)-S-methylsulfoximide] | < 500 | < 500 |
| CCOC(=O)N=S(C)(=O)c1ccc(Nc2ncc(C#Cc3cccc(O)c3)c(N[C@H](C)CO)n2)cc1 (mixture of isomers) [Example 2.7] | < 500 | < 500 |
| COc1ccc(C#Cc2cnc(Nc3ccc(S(C)(=N)=O)cc3)nc2N[C@H](C)CO)cc1 (mixture of isomers) [Example 1.1, (RS)—S-(4-[4-((R)-2-Hydroxy-1-methyl-ethylamino)-5-(4-methoxy-phenylethynyl)-pyrimidin-2-ylamino]-phenyl)-S-methylsulfoximide] | < 500 | < 500 |
| Cc1ccccc1C#Cc1cnc(Nc2cccc(S(C)(=N)=O)c2)nc1N[C@H](C)CO (mixture of isomers) [Example 1.19, (RS)-S-(3-[4-((R)-2-Hydroxy-1-methyl-ethylamino)-5-(2-methyl-phenylethynyl)-pyrimidin-2-ylamino]-phenyl)-S-methylsulfoximide] | < 500 | < 500 |
| CS(=N)(=O)c1cccc(Nc2ncc(C#Cc3cccc(O)c3)cn2)c1 (racemic) [Example 4.2, (RS)—S-(3-[5-(3-hydroxy-phenylethynyl)-pyrimidin-2-ylamino]-phenyl)-S-methylsulfoximide] | < 500 | < 500 |
| Cc1ccccc1C#Cc1cnc(Nc2ccc(S(C)(=N)=O)cc2)nc1N[C@H](C)CO (mixture of isomers) [Example 1.3] | < 500 | < 500 |
